pIC50: −log10 of the molar value.
Tests used:
Format in all cases: biochemical
DNMT3A = DNMT3A (Homo sapiens, UniProt Q9Y6K1); experiment: AlphaScreen methyltransferase assay with […] SAM
mTOR = mTOR (Homo sapiens, UniProt P42345); experiment: FRET-based Z-LYTE kinase assay
DNMT3B = DNMT3B (Homo sapiens, UniProt Q9UBC3); experiment: AlphaScreen methyltransferase assay with […] SAM
DNMT1 = DNMT1 (Homo sapiens, UniProt P26358); experiment: AlphaScreen methyltransferase assay with […] SAM
Sequence of DNMT1 (P26358 whole entry): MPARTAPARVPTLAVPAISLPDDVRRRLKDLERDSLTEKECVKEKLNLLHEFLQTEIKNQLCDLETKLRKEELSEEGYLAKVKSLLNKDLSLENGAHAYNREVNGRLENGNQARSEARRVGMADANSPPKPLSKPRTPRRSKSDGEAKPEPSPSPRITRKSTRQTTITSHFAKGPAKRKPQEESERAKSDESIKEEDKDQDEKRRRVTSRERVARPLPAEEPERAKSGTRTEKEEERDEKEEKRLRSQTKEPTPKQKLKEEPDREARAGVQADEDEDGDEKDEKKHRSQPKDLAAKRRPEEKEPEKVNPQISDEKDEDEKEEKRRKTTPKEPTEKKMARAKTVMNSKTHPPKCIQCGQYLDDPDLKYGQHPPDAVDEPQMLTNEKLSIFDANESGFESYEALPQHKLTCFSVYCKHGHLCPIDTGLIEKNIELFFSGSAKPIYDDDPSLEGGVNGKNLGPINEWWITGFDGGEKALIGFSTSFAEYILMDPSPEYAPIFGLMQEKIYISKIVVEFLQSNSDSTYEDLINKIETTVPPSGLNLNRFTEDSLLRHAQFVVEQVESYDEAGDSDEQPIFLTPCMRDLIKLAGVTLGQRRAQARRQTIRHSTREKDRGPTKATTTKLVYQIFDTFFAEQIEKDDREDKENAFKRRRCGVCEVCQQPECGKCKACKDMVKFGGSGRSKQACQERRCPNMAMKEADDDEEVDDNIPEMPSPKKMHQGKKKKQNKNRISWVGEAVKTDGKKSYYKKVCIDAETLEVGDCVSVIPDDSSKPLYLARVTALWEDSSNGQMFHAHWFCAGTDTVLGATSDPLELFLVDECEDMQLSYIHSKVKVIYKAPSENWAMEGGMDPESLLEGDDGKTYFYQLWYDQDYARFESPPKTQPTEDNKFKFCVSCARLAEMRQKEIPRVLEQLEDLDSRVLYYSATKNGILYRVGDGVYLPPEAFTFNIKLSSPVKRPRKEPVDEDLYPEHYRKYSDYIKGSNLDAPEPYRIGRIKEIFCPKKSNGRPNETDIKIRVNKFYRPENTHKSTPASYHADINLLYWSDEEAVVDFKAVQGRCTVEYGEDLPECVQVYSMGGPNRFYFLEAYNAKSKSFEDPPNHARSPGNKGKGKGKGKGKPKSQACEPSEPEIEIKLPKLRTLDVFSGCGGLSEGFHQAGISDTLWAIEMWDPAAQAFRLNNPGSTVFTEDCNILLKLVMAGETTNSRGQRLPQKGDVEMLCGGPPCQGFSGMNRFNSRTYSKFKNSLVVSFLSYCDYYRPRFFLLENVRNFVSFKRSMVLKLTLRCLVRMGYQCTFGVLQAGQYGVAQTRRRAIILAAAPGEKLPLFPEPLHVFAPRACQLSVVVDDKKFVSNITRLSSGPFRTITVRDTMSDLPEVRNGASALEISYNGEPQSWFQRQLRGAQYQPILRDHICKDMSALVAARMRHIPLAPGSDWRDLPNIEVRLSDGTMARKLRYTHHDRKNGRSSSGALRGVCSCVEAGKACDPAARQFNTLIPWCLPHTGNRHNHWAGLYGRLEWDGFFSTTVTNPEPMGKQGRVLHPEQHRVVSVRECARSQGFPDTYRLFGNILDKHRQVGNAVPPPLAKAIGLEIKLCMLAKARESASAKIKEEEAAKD

Sequence of DNMT3A (Q9Y6K1 whole entry, looked up): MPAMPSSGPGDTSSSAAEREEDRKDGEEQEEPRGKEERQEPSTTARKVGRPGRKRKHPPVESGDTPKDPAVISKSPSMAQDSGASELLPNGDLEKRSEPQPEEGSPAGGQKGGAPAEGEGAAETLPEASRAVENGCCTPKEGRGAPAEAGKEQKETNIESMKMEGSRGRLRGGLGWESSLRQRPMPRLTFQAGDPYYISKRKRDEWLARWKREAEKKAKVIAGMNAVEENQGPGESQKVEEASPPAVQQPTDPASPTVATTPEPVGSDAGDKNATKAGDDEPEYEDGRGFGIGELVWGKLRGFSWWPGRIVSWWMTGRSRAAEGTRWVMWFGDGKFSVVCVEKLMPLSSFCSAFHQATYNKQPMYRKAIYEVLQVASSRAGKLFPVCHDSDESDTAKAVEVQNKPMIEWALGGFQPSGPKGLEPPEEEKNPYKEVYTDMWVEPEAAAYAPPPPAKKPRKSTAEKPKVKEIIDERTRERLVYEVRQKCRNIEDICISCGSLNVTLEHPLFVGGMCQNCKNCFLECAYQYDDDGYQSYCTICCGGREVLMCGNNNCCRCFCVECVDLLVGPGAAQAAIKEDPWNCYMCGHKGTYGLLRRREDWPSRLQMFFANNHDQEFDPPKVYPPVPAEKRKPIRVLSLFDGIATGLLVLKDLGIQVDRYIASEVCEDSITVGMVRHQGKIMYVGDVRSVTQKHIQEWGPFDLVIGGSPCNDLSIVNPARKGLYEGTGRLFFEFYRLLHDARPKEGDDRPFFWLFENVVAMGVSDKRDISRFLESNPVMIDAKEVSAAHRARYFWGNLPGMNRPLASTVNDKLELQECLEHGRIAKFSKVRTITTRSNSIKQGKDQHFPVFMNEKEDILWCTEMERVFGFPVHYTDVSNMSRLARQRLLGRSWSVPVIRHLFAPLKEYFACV

Q: How did the pIC50 (DNMT3A) turn out when C/C=C(/C=O)[C@@H](CC=O)CC(=O)OCCc1ccc(O)c(O)c1 [DOA, decarboxymethyl oleuropein aglycone] was run?
A: The pIC50 was 5.24.

Q: And the pIC50 (mTOR)?
A: The pIC50 was 5.59.

Q: What about the pIC50 (DNMT3B) of the same molecule?
A: Its pIC50 is 5.28.

Q: What about the pIC50 (DNMT1) of the same molecule?
A: Its pIC50 is 4.94.

Q: Which results are given for Nc1ncnc2c1ncn2[C@@H]1O[C@H](CSCC[C@H](N)C(=O)O)[C@@H](O)[C@H]1O [SAH, S-adenosyl-l-homocysteine, reference compound]?
A: pIC50 (DNMT3A): 5.24; pIC50 (DNMT3B): 5.55

Reference: paper PMC5888987 (Carcinogenesis, 2018)
